System: HA mice
Assay: Antigen specificity: ovalbumin given concomitantly with FVIII or FVIII-PS/PC at a distant site
Type: in vivo
Details: ovalbumin concomitantly administered at a distant anatomical site; ±SEM
Text: During the reverse vaccination strategy, it is desirable that the immunization should not interfere with the ability of the immune system to mount immune response against other antigens and pathogens. In order to investigate the antigen specificity and effect of immunization on the systemic immune suppression, another foreign antigen; ovalbumin (Ova) was concomitantly administered with either FVIII or FVIII-PS/PC complexes, but at a distant anatomical site.

Substance: Ova: ovalbumin, another foreign antigen given concomitantly at a distant anatomical site
- Anti-FVIII Nab titers: no anti-FVIII Nabs

— patent publication US10064922B2, “Compositions and methods for immune tolerance induction” (The Research Foundation for The State University of New York, priority 2011, dated 2018)
